Test system: IgE antibodies from patients
Assay: Wheat epitope mapping (2): overlapping 10-amino-acid peptide fragments shifted by one amino acid;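 also: key of grades: preferably = shorter partial sequence still acting as epitope; more preferably = sequence improving IgE binding; key = particularly important sequence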
Assay type: binding, human
Summary of the method: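 Cellulose-bound 10-mer peptides offset by one residue were probed with patient serum IgE and detected by chemiluminescence. Secondary-antibody-only signals were subtracted per peptide. Residual binding was expressed as % of the parent overlapping peptide, scored as none (<30%), poor (30–<50%), somewhat poor (50–<70%) or retained (≥70%).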

[1] = serum of patient G1 (adult, general immediate type allergy to wheat)
[2] = serum of patient G4 (adult, general immediate type allergy to wheat)
[3] = serum of patient G5 (adult, general immediate type allergy to wheat)
[4] = serum of patient G7 (adult, general immediate type allergy to wheat)
[5] = serum of patient P50 (child, general immediate type allergy to wheat)
[6] = serum of patient P55 (child, general immediate type allergy to wheat)
[7] = serum of patient G2 (adult, general immediate type allergy to wheat)
[8] = serum of patient G9 (adult, general immediate type allergy to wheat)

1739 (KEAANFT; REGION 1..7: note = epitope) [compound 1739]
epitope sequence binding to IgE antibody, rank (Key/Preferably/More preferably) [1]: Preferably

1740 (KEAANF; REGION 1..6: note = epitope) [compound 1740]
epitope sequence binding to IgE antibody, rank (Key/Preferably/More preferably) [1]: Key

1741 (SQVIIM; REGION 1..6: note = epitope) [compound 1741]
epitope sequence binding to IgE antibody, rank (Key/Preferably/More preferably) [1]: Key

1742 (KEAAN; REGION 1..5: note = epitope) [compound 1742]
epitope sequence binding to IgE antibody, rank (Key/Preferably/More preferably) [2]: Preferably

1743 (EAAN; REGION 1..4: note = epitope) [compound 1743]
epitope sequence binding to IgE antibody, rank (Key/Preferably/More preferably) [2]: Key

1746 (EAANFTS; REGION 1..7: note = epitope) [compound 1746]
epitope sequence binding to IgE antibody, rank (Key/Preferably/More preferably) [3]: Preferably

1747 (EAANFT; REGION 1..6: note = epitope) [compound 1747]
epitope sequence binding to IgE antibody, rank (Key/Preferably/More preferably) [3]: Key

1749 (EAANFT; REGION 1..6: note = epitope) [compound 1749]
epitope sequence binding to IgE antibody, rank (Key/Preferably/More preferably) (serum of patient G6 (adult, general immediate type allergy to wheat)): Key

1750 (KEAANFT; REGION 1..7: note = epitope) [compound 1750]
epitope sequence binding to IgE antibody, rank (Key/Preferably/More preferably) [4]: Key

1751 (SQVIIM; REGION 1..6: note = epitope) [compound 1751]
epitope sequence binding to IgE antibody, rank (Key/Preferably/More preferably) [4]: Key

1752 (ANFTSQVIIM; REGION 1..10: note = epitope) [compound 1752]
epitope sequence binding to IgE antibody, rank (Key/Preferably/More preferably) (serum of patient G8 (adult, general immediate type allergy to wheat)): Key

1755 (YLKK; REGION 1..4: note = epitope) [compound 1755]
epitope sequence binding to IgE antibody, rank (Key/Preferably/More preferably) (serum of patient P7 (WDEIA)): Key

1756 (VSSYLKK; REGION 1..7: note = epitope) [compound 1756]
epitope sequence binding to IgE antibody, rank (Key/Preferably/More preferably) (serum of patient P8 (WDEIA)): Key

1757 (KVGYNP; REGION 1..6: note = epitope) [compound 1757]
epitope sequence binding to IgE antibody, rank (Key/Preferably/More preferably) (serum of patient P8 (WDEIA)): Key

1758 (YLKK; REGION 1..4: note = epitope) [compound 1758]
epitope sequence binding to IgE antibody, rank (Key/Preferably/More preferably) (serum of patient P14 (WDEIA)): Key

1759 (YLKK; REGION 1..4: note = epitope) [compound 1759]
epitope sequence binding to IgE antibody, rank (Key/Preferably/More preferably) (serum of patient P17 (WDEIA)): Key

1760 (EVSSYLKKV; REGION 1..9: note = epitope) [compound 1760]
epitope sequence binding to IgE antibody, rank (Key/Preferably/More preferably) (serum of patient P18 (WDEIA)): Key

1761 (YLKKVGYN; REGION 1..8: note = epitope) [compound 1761]
epitope sequence binding to IgE antibody, rank (Key/Preferably/More preferably) (serum of patient P18 (WDEIA)): Key

1762 (KEVSSYLKK; REGION 1..9: note = epitope) [compound 1762]
epitope sequence binding to IgE antibody, rank (Key/Preferably/More preferably) (serum of patient P27 (WDEIA)): Key

1763 (LKKVGYN; REGION 1..7: note = epitope) [compound 1763]
epitope sequence binding to IgE antibody, rank (Key/Preferably/More preferably) (serum of patient P27 (WDEIA)): Key

1764 (KEVSSYLKKV; REGION 1..10: note = epitope) [compound 1764]
epitope sequence binding to IgE antibody, rank (Key/Preferably/More preferably) (serum of patient P30 (WDEIA)): Key

1765 (YLKKVGYN; REGION 1..8: note = epitope) [compound 1765]
epitope sequence binding to IgE antibody, rank (Key/Preferably/More preferably) (serum of patient P30 (WDEIA)): Key

1767 (KKVGYNP; REGION 1..7: note = epitope) [compound 1767]
epitope sequence binding to IgE antibody, rank (Key/Preferably/More preferably) (serum of patient P33 (WDEIA)): Key

1768 (VSSYLKK; REGION 1..7: note = epitope) [compound 1768]
epitope sequence binding to IgE antibody, rank (Key/Preferably/More preferably) (serum of patient P35 (WDEIA)): Key

1769 (KVGYNP; REGION 1..6: note = epitope) [compound 1769]
epitope sequence binding to IgE antibody, rank (Key/Preferably/More preferably) (serum of patient P35 (WDEIA)): Key

1770 (VSSYLKK; REGION 1..7: note = epitope) [compound 1770]
epitope sequence binding to IgE antibody, rank (Key/Preferably/More preferably) [5]: Key

1771 (KVGYNP; REGION 1..6: note = epitope) [compound 1771]
epitope sequence binding to IgE antibody, rank (Key/Preferably/More preferably) [5]: Key

1773 (EVSSYLKK; REGION 1..8: note = epitope) [compound 1773]
epitope sequence binding to IgE antibody, rank (Key/Preferably/More preferably) [6]: Key

1774 (YLKKVGYNP; REGION 1..9: note = epitope) [compound 1774]
epitope sequence binding to IgE antibody, rank (Key/Preferably/More preferably) [6]: Preferably

1775 (LKKVGYN; REGION 1..7: note = epitope) [compound 1775]
epitope sequence binding to IgE antibody, rank (Key/Preferably/More preferably) [6]: Key

1777 (KEVSSYLKK; REGION 1..9: note = epitope) [compound 1777]
epitope sequence binding to IgE antibody, rank (Key/Preferably/More preferably) [7]: Key

1778 (KVGY; REGION 1..4: note = epitope) [compound 1778]
epitope sequence binding to IgE antibody, rank (Key/Preferably/More preferably) [7]: Key

1780 (YLKKVG; REGION 1..6: note = epitope) [compound 1780]
epitope sequence binding to IgE antibody, rank (Key/Preferably/More preferably) (serum of patient G3 (adult, general immediate type allergy to wheat)): Key

1781 (KEVSSYLKKV; REGION 1..10: note = epitope) [compound 1781]
epitope sequence binding to IgE antibody, rank (Key/Preferably/More preferably) [2]: Key

1782 (VSSYLKKVGY; REGION 1..10: note = epitope) [compound 1782]
epitope sequence binding to IgE antibody, rank (Key/Preferably/More preferably) [2]: Key

1783 (KVGYNP; REGION 1..6: note = epitope) [compound 1783]
epitope sequence binding to IgE antibody, rank (Key/Preferably/More preferably) [2]: Key

1784 (LKKVGYNP; REGION 1..8: note = epitope) [compound 1784]
epitope sequence binding to IgE antibody, rank (Key/Preferably/More preferably) [3]: Key

1785 (LKKVGYNP; REGION 1..8: note = epitope) [compound 1785]
epitope sequence binding to IgE antibody, rank (Key/Preferably/More preferably) [4]: Key

1786 (KEVSSYLKK; REGION 1..9: note = epitope) [compound 1786]
epitope sequence binding to IgE antibody, rank (Key/Preferably/More preferably) [8]: Preferably

1787 (KEVSSYLK; REGION 1..8: note = epitope) [compound 1787]
epitope sequence binding to IgE antibody, rank (Key/Preferably/More preferably) [8]: Key

1788 (LKKVGYNP; REGION 1..8: note = epitope) [compound 1788]
epitope sequence binding to IgE antibody, rank (Key/Preferably/More preferably) [8]: Key

1790 (SGKELE; REGION 1..6: note = epitope) [compound 1790]
epitope sequence binding to IgE antibody, rank (Key/Preferably/More preferably) (serum of patient P3 (WDEIA)): Key

1791 (PKFL; REGION 1..4: note = epitope) [compound 1791]
epitope sequence binding to IgE antibody, rank (Key/Preferably/More preferably) (serum of patient P3 (WDEIA)): Key

1792 (SGKELE; REGION 1..6: note = epitope) [compound 1792]
epitope sequence binding to IgE antibody, rank (Key/Preferably/More preferably) (serum of patient P8 (WDEIA)): Key

1793 (SGKELEALPK; REGION 1..10: note = epitope) [compound 1793]
epitope sequence binding to IgE antibody, rank (Key/Preferably/More preferably) (serum of patient P9 (WDEIA)): Key

1796 (SGKELEALPK; REGION 1..10: note = epitope) [compound 1796]
epitope sequence binding to IgE antibody, rank (Key/Preferably/More preferably) (serum of patient P15 (WDEIA)): Preferably

1798 (EALPKFLKN; REGION 1..9: note = epitope) [compound 1798]
epitope sequence binding to IgE antibody, rank (Key/Preferably/More preferably) (serum of patient P15 (WDEIA)): Preferably

1799 (KFLK; REGION 1..4: note = epitope) [compound 1799]
epitope sequence binding to IgE antibody, rank (Key/Preferably/More preferably) (serum of patient P15 (WDEIA)): Key

1800 (KELEALPK; REGION 1..8: note = epitope) [compound 1800]
epitope sequence binding to IgE antibody, rank (Key/Preferably/More preferably) (serum of patient P17 (WDEIA)): Key

1801 (LEALPKFLKN; REGION 1..10: note = epitope) [compound 1801]
epitope sequence binding to IgE antibody, rank (Key/Preferably/More preferably) (serum of patient P17 (WDEIA)): Key

1802 (SGKELEALPK; REGION 1..10: note = epitope) [compound 1802]
epitope sequence binding to IgE antibody, rank (Key/Preferably/More preferably) (serum of patient P18 (WDEIA)): Preferably

1803 (SGKELE; REGION 1..6: note = epitope) [compound 1803]
epitope sequence binding to IgE antibody, rank (Key/Preferably/More preferably) (serum of patient P18 (WDEIA)): Key

1804 (KFLKN; REGION 1..5: note = epitope) [compound 1804]
epitope sequence binding to IgE antibody, rank (Key/Preferably/More preferably) (serum of patient P18 (WDEIA)): Key

1806 (ELEALPK; REGION 1..7: note = epitope) [compound 1806]
epitope sequence binding to IgE antibody, rank (Key/Preferably/More preferably) (serum of patient P22 (WDEIA)): Key

1807 (PKFLKNG; REGION 1..7: note = epitope) [compound 1807]
epitope sequence binding to IgE antibody, rank (Key/Preferably/More preferably) (serum of patient P22 (WDEIA)): Key

1809 (ELEALPKFL; REGION 1..9: note = epitope) [compound 1809]
epitope sequence binding to IgE antibody, rank (Key/Preferably/More preferably) (serum of patient P26 (WDEIA)): Preferably

1811 (ALPKFLKNG; REGION 1..9: note = epitope) [compound 1811]
epitope sequence binding to IgE antibody, rank (Key/Preferably/More preferably) (serum of patient P26 (WDEIA)): Preferably

1814 (KELEAL; REGION 1..6: note = epitope) [compound 1814]
epitope sequence binding to IgE antibody, rank (Key/Preferably/More preferably) (serum of patient P27 (WDEIA)): Key

1815 (PKFLK; REGION 1..5: note = epitope) [compound 1815]
epitope sequence binding to IgE antibody, rank (Key/Preferably/More preferably) (serum of patient P29 (WDEIA)): Key

1816 (LEALPKFL; REGION 1..8: note = epitope) [compound 1816]
epitope sequence binding to IgE antibody, rank (Key/Preferably/More preferably) (serum of patient P30 (WDEIA)): Key

1817 (SGKELE; REGION 1..6: note = epitope) [compound 1817]
epitope sequence binding to IgE antibody, rank (Key/Preferably/More preferably) (serum of patient P32 (WDEIA)): Key

1818 (PKFL; REGION 1..4: note = epitope) [compound 1818]
epitope sequence binding to IgE antibody, rank (Key/Preferably/More preferably) (serum of patient P32 (WDEIA)): Key
